Results from patent publication US9695155B2, “Herbicidal substituted pyrimidinyloxy benzene compounds” (E. I. DU PONT DE NEMOURS AND COMPANY, priority 2013, dated 2017).

What was measured:
Heteranthera limosa = assay: Test B flooded paddy test; type: in vivo; details: Flood, 250 g ai/ha, 0 to 100 scale where 0 is no effect and 100 is complete control
Procedure, shortened: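 Scores from 0 (no effect) to 100 (complete control) are visual comparisons with controls, taken 13 to 15 days after compound was applied into floodwater 3 cm deep around 2-leaf plants.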

Italian ryegrass = assay: Test C preemergence; type: in vivo, Lolium multiflorum
Procedure, shortened: (§1)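 Injury was assessed visually against controls 13 to 15 days after application, with 0 meaning no effect and 100 full control; missing entries are shown as a dash. Preemergence sprays hit seeded loam–sand soil, postemergence sprays hit 1- to 4-leaf plants.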

corn [1] = assay: Test A postemergence; type: in vivo, Zea mays
Procedure, shortened: (§2)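 Injury scores run from 0, no effect, to 100, complete control, judged by eye against untreated plants roughly 10 days after treatment. Chemicals carried a surfactant in a non-phytotoxic solvent and went onto loam–sand soil preemergence or onto one- to two-leaf seedlings postemergence.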

wheat = assay: Test A preemergence; type: in vivo, Triticum aestivum
Procedure, shortened: as §2

ragweed = assay: Test C preemergence; type: in vivo, Ambrosia elatior
Procedure, shortened: as §1

oilseed rape = assay: Test C preemergence; type: in vivo, Brassica napus
Procedure, shortened: as §1

morningglory [2] = assay: Test C postemergence; type: in vivo, Ipomoea coccinea
Procedure, shortened: as §1

giant foxtail = assay: Test A postemergence; type: in vivo, Setaria faberii
Procedure, shortened: as §2

barnyardgrass = assay: Test A preemergence; type: in vivo, Echinochloa crus-galli
Procedure, shortened: as §2

pigweed = assay: Test C postemergence; type: in vivo, Amaranthus retroflexus
Procedure, shortened: as §1

large (Lg) crabgrass = assay: Test A preemergence; type: in vivo, Digitaria sanguinalis
Procedure, shortened: as §2

morningglory [3] = assay: Test A postemergence; type: in vivo, Ipomoea spp.
Procedure, shortened: as §2

wild oat = assay: Test C postemergence; type: in vivo, Avena fatua
Procedure, shortened: as §1

corn [4] = assay: Test C postemergence; type: in vivo, Zea mays
Procedure, shortened: as §1

kochia = assay: Test C postemergence; type: in vivo, Kochia scoparia
Procedure, shortened: as §1

[5] = 31 g ai/ha, postemergence, visual rating, scale 0 to 100 (0 no effect, 100 complete control), 13 to 15 days
[6] = 16 g ai/ha, preemergence, scale 0 to 100 (0 no effect, 100 complete control)
[7] = 62 g ai/ha, preemergence, scale 0 (no effect) to 100 (complete control)
[8] = 125 g ai/ha, preemergence, scale 0 (no effect) to 100 (complete control)
[9] = Preemergence, 31 g ai/ha, scale 0 to 100, 0 no effect, 100 complete control
[10] = 1000 g ai/ha, 0 to 100 scale, 0 no effect, 100 complete control
[11] = 16 g ai/ha, postemergence, 0 is no effect, 100 is complete control
[12] = 125 g ai/ha, postemergence, visual rating, scale 0 to 100 (0 no effect, 100 complete control)
[13] = Postemergence, 62 g ai/ha, scale 0 to 100 (0 no effect, 100 complete control)

## FC(F)c1cccc(Oc2ncc(Cl)cn2)c1-n1cc(Br)cn1 [Compound 194, 2-[2-(4-bromo-1H-pyrazol-1-yl)-3-(difluoromethyl)phenoxy]-5-chloropyrimidine]
Heteranthera limosa; Heteranthera limosa, read-out: Plant response rating, Ducksalad
  pest or weed control at 250 g/ha: 98%
Italian ryegrass; Lolium multiflorum, pre-emergence, 125 g ai/ha, preemergence, scale 0 (no effect) to 100 (complete control), read-out: Ryegrass, Italian plant response rating
  pest or weed control at 125 g/ha: 70%
Italian ryegrass; Lolium multiflorum, pre-emergence, 250 g ai/ha, preemergence, scale 0 (no effect) to 100 (complete control), read-out: Ryegrass, Italian plant response rating
  pest or weed control at 250 g/ha: 90%
Italian ryegrass; Lolium multiflorum, pre-emergence, Preemergence, 62 g ai/ha, scale 0 to 100, 0 no effect, 100 complete control, read-out: Plant response rating, Ryegrass, Italian
  pest or weed control at 62 g/ha: 20%
Corn [1]; Zea mays, post-emergence, 240 h, 125 g ai/ha, 0 to 100 scale where 0 is no effect and 100 is complete control, read-out: Corn plant response rating
  plant injury at 125 g/ha: 30%
Corn [1]; Zea mays, post-emergence, 240 h, 500 g ai/ha, 0 to 100 scale where 0 is no effect and 100 is complete control
  Corn plant response rating (crop injury, 0 = no effect, 100 = complete kill) at 500 g/ha: 60%
wheat; 125 g ai/ha
  Wheat plant response rating (0 to 100 scale): 20
wheat; Triticum aestivum, pre-emergence, 240 h, 500 g ai/ha, 0 to 100 scale where 0 is no effect and 100 is complete control, read-out: Wheat plant response rating
  plant injury at 500 g/ha: 30%
ragweed; Ambrosia artemisiifolia, pre-emergence, 125 g ai/ha, preemergence, scale 0 (no effect) to 100 (complete control), read-out: Ragweed plant response rating
  pest or weed control at 125 g/ha: 20%
ragweed; Ambrosia artemisiifolia, pre-emergence, 250 g ai/ha, preemergence, scale 0 (no effect) to 100 (complete control), read-out: Ragweed plant response rating
  pest or weed control at 250 g/ha: 75%
ragweed; Ambrosia artemisiifolia, pre-emergence, Preemergence, 62 g ai/ha, scale 0 to 100, 0 no effect, 100 complete control, read-out: Plant response rating, Ragweed
  pest or weed control at 62 g/ha: 10%
Oilseed rape; Brassica napus, pre-emergence, 125 g ai/ha, preemergence, scale 0 (no effect) to 100 (complete control), read-out: Oilseed Rape plant response rating
  plant injury at 125 g/ha: 90%
Oilseed rape; Brassica napus, pre-emergence, 250 g ai/ha, preemergence, scale 0 (no effect) to 100 (complete control), read-out: Oilseed Rape plant response rating
  plant injury at 250 g/ha: 100%
Oilseed rape; Brassica napus, pre-emergence, Preemergence, 62 g ai/ha, scale 0 to 100, 0 no effect, 100 complete control, read-out: Plant response rating, Oilseed Rape
  plant injury at 62 g/ha: 30%
Morningglory [2]; [5]
  Morningglory plant response rating: 50
Morningglory [2]; Ipomoea, post-emergence, 125 g ai/ha, postemergence, visual rating, scale 0 to 100 (0 no effect, 100 complete control), read-out: Plant response rating, Morningglory
  pest or weed control at 125 g/ha: 80%
Morningglory [2]; Ipomoea, post-emergence, 250 g ai/ha, postemergence, read-out: Plant response rating (0 to 100), Morningglory
  pest or weed control at 250 g/ha: 95%
Morningglory [2]; Ipomoea, post-emergence, Postemergence, 62 g ai/ha, scale 0 to 100 (0 no effect, 100 complete control), 13 to 15 days, read-out: Plant response rating, Morningglory
  pest or weed control at 62 g/ha: 80%
Giant foxtail; Setaria faberi, post-emergence, 240 h, 125 g ai/ha, 0 to 100 scale where 0 is no effect and 100 is complete control, read-out: Foxtail, Giant plant response rating
  pest or weed control at 125 g/ha: 90%
Giant foxtail; Setaria faberi, post-emergence, 240 h, 500 g ai/ha, 0 to 100 scale where 0 is no effect and 100 is complete control, read-out: Plant response rating, Foxtail, Giant
  pest or weed control at 500 g/ha: 100%
barnyardgrass; 125 g ai/ha
  Barnyardgrass plant response rating (0 to 100 scale, 0 is no effect, 100 is complete control): 80
barnyardgrass; Echinochloa crus-galli, pre-emergence, 240 h, 500 g ai/ha, 0 to 100 scale where 0 is no effect and 100 is complete control, read-out: Barnyardgrass plant response rating
  pest or weed control at 500 g/ha: 100%
pigweed; [5]
  Pigweed plant response rating: 75
pigweed; Amaranthus retroflexus, post-emergence, 125 g ai/ha, postemergence, visual rating, scale 0 to 100 (0 no effect, 100 complete control), read-out: Plant response rating, Pigweed
  pest or weed control at 125 g/ha: 90%
pigweed; Amaranthus retroflexus, post-emergence, 250 g ai/ha, postemergence, read-out: Plant response rating (0 to 100), Pigweed
  pest or weed control at 250 g/ha: 95%
pigweed; Amaranthus retroflexus, post-emergence, Postemergence, 62 g ai/ha, scale 0 to 100 (0 no effect, 100 complete control), 13 to 15 days, read-out: Plant response rating, Pigweed
  pest or weed control at 62 g/ha: 75%
Large (Lg) crabgrass; 125 g ai/ha
  Crabgrass, Large plant response rating (0 to 100 scale): 100
Large (Lg) crabgrass; Digitaria sanguinalis, pre-emergence, 240 h, 500 g ai/ha, 0 to 100 scale where 0 is no effect and 100 is complete control, read-out: Crabgrass, Large plant response rating
  pest or weed control at 500 g/ha: 100%
Morningglory [3]; 125 g ai/ha, 0 to 100 scale where 0 is no effect and 100 is complete control
  Morningglory plant response rating: 90
Morningglory [3]; Ipomoea, post-emergence, 240 h, 500 g ai/ha, 0 to 100 scale where 0 is no effect and 100 is complete control, read-out: Plant response rating, Morningglory
  pest or weed control at 500 g/ha: 100%
Wild oat; [5]
  Oat, Wild plant response rating: 5
Wild oat; Avena fatua, post-emergence, 125 g ai/ha, postemergence, visual rating, scale 0 to 100 (0 no effect, 100 complete control), read-out: Plant response rating, Oat, Wild
  pest or weed control at 125 g/ha: 40%
Wild oat; Avena fatua, post-emergence, 250 g ai/ha, postemergence, read-out: Plant response rating (0 to 100), Oat, Wild
  pest or weed control at 250 g/ha: 45%
Wild oat; Avena fatua, post-emergence, Postemergence, 62 g ai/ha, scale 0 to 100 (0 no effect, 100 complete control), 13 to 15 days, read-out: Plant response rating, Oat, Wild
  pest or weed control at 62 g/ha: 15%
Corn [4]; Zea mays, post-emergence, 31 g ai/ha, postemergence, visual rating, scale 0 to 100 (0 no effect, 100 complete control), 13 to 15 days, read-out: Corn plant response rating
  plant injury at 31 g/ha: 5%
Corn [4]; Zea mays, post-emergence, 125 g ai/ha, postemergence, visual rating, scale 0 to 100 (0 no effect, 100 complete control)
  Corn plant response rating (crop injury, 0 = no effect, 100 = complete kill) at 125 g/ha: 25%
Corn [4]; Zea mays, post-emergence, 250 g ai/ha, postemergence, read-out: Plant response rating (0 to 100), Corn
  plant injury at 250 g/ha: 30%
kochia; Bassia scoparia, post-emergence, 31 g ai/ha, postemergence, visual rating, scale 0 to 100 (0 no effect, 100 complete control), 13 to 15 days, read-out: Kochia plant response rating
  pest or weed control at 31 g/ha: 90%
kochia; Bassia scoparia, post-emergence, 125 g ai/ha, postemergence, visual rating, scale 0 to 100 (0 no effect, 100 complete control), read-out: Plant response rating, Kochia
  pest or weed control at 125 g/ha: 90%
kochia; Bassia scoparia, post-emergence, 250 g ai/ha, postemergence, read-out: Plant response rating (0 to 100), Kochia
  pest or weed control at 250 g/ha: 95%
kochia; Bassia scoparia, post-emergence, Postemergence, 62 g ai/ha, scale 0 to 100 (0 no effect, 100 complete control), 13 to 15 days, read-out: Plant response rating, Kochia
  pest or weed control at 62 g/ha: 90%

## N#Cc1cn(-c2c(Br)cccc2Oc2ncc(Cl)cn2)nn1 [Compound 116]
Heteranthera limosa
  Plant response rating, Ducksalad: 60
Italian ryegrass; [6]
  Ryegrass, Italian plant response rating: 0
Italian ryegrass; [7]
  Ryegrass, Italian plant response rating: 10
Italian ryegrass; [8]
  Ryegrass, Italian plant response rating: 35
Italian ryegrass; [9]
  Plant response rating, Ryegrass, Italian: 0
Corn [1]; [10]
  Plant response rating, Corn: 60
wheat; 1000 g ai/ha, 0 to 100 scale, 0 no effect, 100 complete control, approx. 10 days
  Wheat plant response rating: 40
ragweed; [6]
  Ragweed plant response rating: 0
ragweed; [7]
  Ragweed plant response rating: 45
ragweed; [8]
  Ragweed plant response rating: 45
ragweed; [9]
  Plant response rating, Ragweed: 5
Oilseed rape; [6]
  Oilseed Rape plant response rating: 0
Oilseed rape; [7]
  Oilseed Rape plant response rating: 98
Oilseed rape; [8]
  Oilseed Rape plant response rating: 100
Oilseed rape; [9]
  Plant response rating, Oilseed Rape: 5
Morningglory [2]; [11]
  Plant response rating (0 to 100), Morningglory: 50
Morningglory [2]; [12]
  Plant response rating, Morningglory: 80
Morningglory [2]; [13]
  Plant response rating, Morningglory: 60
Giant foxtail; [10]
  Plant response rating, Foxtail, Giant: 90
barnyardgrass; [10]
  Plant response rating, Barnyardgrass: 90
pigweed; [11]
  Plant response rating (0 to 100), Pigweed: 80
pigweed; [12]
  Plant response rating, Pigweed: 95
pigweed; [13]
  Plant response rating, Pigweed: 90
Large (Lg) crabgrass; [10]
  Plant response rating, Crabgrass, Large: 100
Morningglory [3]; [10]
  Plant response rating, Morningglory: 100
Wild oat; [11]
  Plant response rating (0 to 100), Oat, Wild: 5
Wild oat; [12]
  Plant response rating, Oat, Wild: 15
Wild oat; [13]
  Plant response rating, Oat, Wild: 5
Corn [4]; [11]
  Plant response rating (0 to 100), Corn: 0
Corn [4]; [12]
  Plant response rating, Corn: 5
Corn [4]; [13]
  Plant response rating, Corn: 5
kochia; [11]
  Plant response rating (0 to 100), Kochia: 70
kochia; [12]
  Plant response rating, Kochia: 95
kochia; [13]
  Plant response rating, Kochia: 90
